Experimental findings from patent US4629781A, “Chemical process for preparing L 17392 (deglucoteicoplanin) and its salts” (Gruppo Lepetit S.p.A., priority 1983, dated 1986) are described below.

Each structure is given as a SMILES string. Converted amounts (≈) assume the structure as drawn.

The nature of one series: Solubility. Format: physicochemical.
The nature of series [1]: Potentiometric titration profile. Format: physicochemical. The settings on record: methylcellosolve/water 4:1, titration with 0.01N NaOH after excess of 0.01N HCl.
Series [2] relates to staphylococci (S. aureus, S. epidermidis). As to the kind of experiment: In vitro antibacterial activity against staphylococci (summary). It counts as cell-based. The settings on record: in words. How it is done:
(§1) The in vitro antibacterial activity of deglucoteicoplanin was determined using the two-fold dilution method in microtiter system. Todd-Hewitt broth (Difco) was used for streptococci and Isosensitest broth (Oxoid) for staphylococci and gram-negative bacteria. Overnight broth cultures were diluted so that the final inoculum was about 10^4 colony-forming units per ml (cfu/ml).

The test system of series [3] is clinical isolate methicillin-resistant staphylococci (S. aureus, S. epidermidis). As to the kind of experiment: In vitro antibacterial activity against methicillin-resistant staphylococci (summary). Format: cell-based. The settings on record: in words. The protocol: as §1
Another series concerns S. pyogenes. As to the kind of experiment: Experimental infection in mice infected with S. pyogenes. Format: in vivo. Conditions: subcutaneous administration.
For the next series, the system named is S. aureus L 1096. Description: MIC against clinical isolate methicillin-resistant staphylococci. It counts as cell-based. Also noted: unit not given here. Conditions: S. aureus L 1096, clinical isolate methicillin-resistant. The protocol: as §1
A further series has as its system S. epidermidis 1372. The description is as above. Format: cell-based. More on the design: unit not given here. The settings on record: S. epidermidis 1372, clinical isolate methicillin-resistant. How it is done:
as §1

In another series the test system is S. epidermidis 835. Described as above. Also noted: unit not given here. The settings on record: S. epidermidis 835, clinical isolate methicillin-resistant. It counts as cell-based. How it is done: as §1
Another series deals with S. aureus L 1526. Described as above. It counts as cell-based. The settings on record: S. aureus L 1526, clinical isolate methicillin-resistant. Also noted: unit not given here. The protocol: as §1
Another series has as its system S. epidermidis 1142. The description is as above. It counts as cell-based. More on the design: unit not given here. The settings on record: S. epidermidis 1142, clinical isolate methicillin-resistant. The protocol: as §1
For a further series, the system named is S. epidermidis 1378. The description is as above. It counts as cell-based. More on the design: unit not given here. Conditions: S. epidermidis 1378, clinical isolate methicillin-resistant. The protocol:
as §1

The next series relates to S. aureus L 1097. Described as above. Format: cell-based. Also noted: unit not given here. Conditions: S. aureus L 1097, clinical isolate methicillin-resistant. The protocol: as §1
The subject of a further series is S. aureus L 1524. Described as above. It counts as cell-based. Also noted: unit not given here. The settings on record: S. aureus L 1524, clinical isolate methicillin-resistant. How it is done:
as §1

Another series relates to S. epidermidis 785. The description is as above. Format: cell-based. Also noted: unit not given here. Conditions: S. epidermidis 785, clinical isolate methicillin-resistant. How it is done:
as §1

Series [4] has as its system Staphylococcus aureus Tour. Description: In vitro antibacterial activity, two-fold dilution method in microtiter system (MIC). Format: cell-based. The protocol: The in vitro antibacterial activity of deglucoteicoplanin was determined using the two-fold dilution method in microtiter system. Todd-Hewitt broth (Difco) was used for streptococci and Isosensitest broth (Oxoid) for staphylococci and gram-negative bacteria. […]

Series [5] relates to Streptococcus pneumoniae UC 41. The description is as above. It counts as cell-based. The protocol:
as §1

The subject of series [6] is Pseudomonas aeruginosa ATCC 10145. The series is described as above. It counts as cell-based. How it is done: as §1
For series [7], the system named is Staphylococcus aureus ATCC 6538. The series is described as above. It counts as cell-based. The settings on record: inoculum about 10^4 cfu/ml, 18-24 hours at 37° C. How it is done: as §1
The test system of series [8] is Streptococcus faecalis ATCC 7080. Described as above. Format: cell-based. The protocol: as §1
Series [9] has as its system Staphylococcus epidermidis ATCC 12228. Described as above. Format: cell-based. How it is done:
as §1

Series [10] has as its system Proteus vulgaris X 19 H ATCC 881. The series is described as above. It counts as cell-based. The protocol:
as §1

Series [11] deals with Escherichia coli SKF 12140. The description is as above. It counts as cell-based. How it is done:
as §1

The test system of series [12] is Streptococcus pyogenes C 203 SFK 13400. Described as above. Format: cell-based. How it is done: as §1

Consider `CC(=O)N[C@@H]1[C@@H](O[C@H]2c3ccc(c(Cl)c3)Oc3cc4cc(c3O)Oc3ccc(cc3Cl)C[C@@H]3NC(=O)[C@@H](N)c5ccc(O)c(c5)Oc5cc(O)cc(c5)[C@@H](NC3=O)C(=O)N[C@@H]4C(=O)N[C@@H]3C(=O)N[C@H]2C(=O)N[C@@H](C(=O)O)c2cc(O)cc(O)c2-c2cc3ccc2O)O[C@@H](CO)[C@H](O)[C@H]1O` (stereo in doubt) [antibiotic L 17046], for which the solubility entry is “slightly soluble” in the series “Solubility” (in methanol); “almost insoluble” in the series “Solubility” (in n-hexane, ethyl ether and acetone); “freely soluble” in “Solubility” (in water at pH>8.0, in dimethylformamide, dimethylsulfoxide, propyleneglycol and methylcellosolve). The “pH1/2 value, third titration slope” value in series [1] (five equivalents) is given as 11. The “pH1/2 value, first titration slope” value in series [1] (one equivalent) is 5.0. Further, in series [1] (one equivalent), the “pH1/2 value, second titration slope” value is 7.0.

For `N[C@H]1C(=O)N[C@@H]2Cc3ccc(c(Cl)c3)Oc3cc4cc(c3O)Oc3ccc(cc3Cl)[C@@H](O)[C@@H]3NC(=O)[C@H](NC(=O)[C@@H]4NC(=O)[C@@H](NC2=O)c2cc(O)cc(c2)Oc2cc1ccc2O)c1ccc(O)c(c1)-c1c(O)cc(O)cc1[C@@H](C(=O)O)NC3=O` [deglucoteicoplanin], the solubility entry in the series “Solubility” (in ethyl alcohol and dimethylformamide) is on record as “slightly soluble”; in “Solubility” (in water at a pH higher than 9 and aqueous methanol, ethanol and acetone), “soluble”. In [2], the “activity against staphylococci (S. aureus, S. epidermidis)” value is reported as “very active”. Besides, the “activity against clinical isolate methicillin-resistant staphylococci” value in series [3] is listed as “very effective”. The median effective dose (ED50) (usually the midpoint of the dose-response relation) in the series with S. pyogenes is recorded as 0.95 mg/kg. Besides, the MIC is recorded as 0.05 against S. aureus L 1096; 0.2 against S. epidermidis 1372; 0.05 in the series on S. epidermidis 835; 0.05 against S. aureus L 1526; 0.05 in the series on S. epidermidis 1142; 0.05 in the series on S. epidermidis 1378. For the same compound, the MIC with S. aureus L 1097 is 0.05; against S. aureus L 1524, 0.1; against S. epidermidis 785, 0.05; in series [4] (Inoculum: 10^6 cfu/ml), 0.2 µg/mL (≈ 0.167 µM); in [4] (in the presence of 30% bovine serum), 0.2 µg/mL; in [4] (inoculum about 10^4 cfu/ml), 0.05 µg/mL (≈ 0.0417 µM). Moreover, the MIC was 0.05 µg/mL (≈ 0.0417 µM) in series [5]; over 100 µg/mL in series [6]; 0.025 µg/mL (≈ 0.0209 µM) in [7]; 0.1 µg/mL (≈ 0.0834 µM) in series [8]; 0.0125 µg/mL (≈ 0.0104 µM) in [9]; 50 µg/mL (≈ 41.7 µM) in series [10]. Besides, the MIC was 25 µg/mL (≈ 20.9 µM) in series [11] and 0.05 µg/mL (≈ 0.0417 µM) in [12].
